This passage reports ASC speckles, LDH release and IC50 results from PMC12388496, “Discovery of (E)-1,3-Diphenyl-2-Propen-1-One Derivatives as Potent and Orally Active NLRP3 Inflammasome Inhibitors for Colitis” (Molecules, 2025).

The IC50 is the concentration that gives 50% inhibition. Read a high IC50 as a need for much substance.

Molecules are shown by their SMILES.

Data set [1] relates to ASC. In words: ASC spot immunofluorescence experiment in BMDM cells. To be noted: LPS and Nigericin, concentration-dependent. Format: cell-based, mouse. An excerpt:
The formation of ASC oligomers is a key hallmark of inflammasome activation. ASC forms interactions with other ASC molecules through its pyrin domain (PYD), which leads to the aggregation of these molecules, resulting in the formation of a speck-like structure (ASC specks). This process involves not only the aggregation of proteins but also the assembly of a highly ordered structure in the cytoplasm. Inhibition of ASC oligomerization can effectively block NLRP3 inflammasome activation. […] Therefore, we hypothesize that F14 may inhibit caspase-1 activation by interfering with ASC oligomerization or ASC speck formation. To validate this hypothesis, we conducted immunofluorescence experiments in BMDM cells under inflammatory conditions.
Add the BMDM cells into a 24-well plate with a cell density of 3 × 10^5 cells per well. Add LPS (200 ng/mL) to all wells except the blank wells to stimulate the cells for 3 h, then add the F14 to the experimental group and incubate for 1 h, followed by Nigericin stimulation for 30 min. Add 500 μL of FAA fixation solution to each well, incubate with 1% TritonX-100 solution for 15 min, then block with 5% BSA solution. Add an appropriate amount of primary antibody and incubate overnight, wash, then add the secondary antibody for incubation. […]

The test system of data set [2] is THP-1 cells. In words: LDH release assay. Format: cell-based. To be noted: NLRP3 inflammasome activation by LPS/Nigericin. An excerpt:
Pyroptosis is a form of programmed cell death, typically triggered by the activation of inflammasomes within the cell. It is characterized by the rupture of the cell membrane, releasing cellular contents (such as Lactate Dehydrogenase, LDH), which enhances the inflammatory response. Unlike apoptosis, pyroptosis is initiated through the activation of inflammasomes, involving distinct molecular mechanisms, and is often accompanied by cell swelling and rupture. In contrast, apoptosis is triggered by the activation of Caspase-3, leading to systemic degradation within the cell while maintaining the integrity of the cell membrane. The cell undergoes controlled self-degradation without provoking an immune response. Inhibiting pyroptosis is crucial for alleviating inflammation and promoting tissue repair. To investigate the effect of compound F14 on pyroptosis, we employed flow cytometry and lactate dehydrogenase (LDH) release assays for systematic analysis. Flow cytometry was used to assess the impact of F14 on pyroptosis under inflammatory conditions.
Count the THP-1 cells and inoculate them into a 96-well plate. Add 50 ng/mL PMA and culture the cells at 37 °C in a 5% CO2 incubator for 24 h. Add LPS-containing medium and stimulate the cells for 3 h to induce an inflammatory response. Add F14 and incubate for 1 h, then add Nigericin and stimulate for 30 min to induce pyroptosis. […]
Background: LDH leaks from cells whose membrane has failed.

A short description of data set [3]: MTT assay, HepaRG cytotoxicity. The data set is classed as cell-based. The conditions noted are these: human, HepaRG cells, n = 3. The protocol: HepaRG cells in the logarithmic growth phase (10^5 cells/mL), inoculate them into a 96-well plate, and culture overnight in a 37 °C, 5% CO2 incubator. Add compounds at different concentrations and continue culturing for 24 h. Add 20 μL of MTT solution, incubate for 4 h, discard the supernatant, and add DMSO to dissolve.

In the case of `Cc1ccc(C(=O)/C=C/c2cccc(O)c2)c(C)c1` [Compound F14, (E)-1-(2,4-dimethylphenyl)-3-(3-hydroxyphenyl)propyl-2-en-1-one], the ASC speckles result in data set [1] was “significant reduction”. Besides, the LDH release entry in data set [2] is on record as “decreased in a concentration-dependent manner”. This molecule also showed an IC50 at 24 h in data set [3] greater than 50 µM.
